Reference: US10954252B1, “Inhibitors of human immunodeficiency virus replication” (ViiV HEALTHCARE UK (NO.5) LIMITED, priority 2017, dated 2021)

Columns and labels:
[1] = tested on: recombinant NL4-3 virus (nef section replaced with Renilla luciferase gene) in MT-2 cells; experiment: HIV cell culture assay (antiviral activity, luciferase readout); assay type: cell-based; conditions: Renilla, NL43, Table 1a; MT-2 cells infected for 4-5 days with recombinant NL4-3 luciferase virus
Method in brief: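 Serially diluted compounds were present throughout a 4-5 day infection of MT-2 cells by recombinant NL4-3 whose nef region partly encodes Renilla luciferase. Antiviral activity was taken from live-cell luciferase signal, with the 50% effective concentration fitted by the exponential median effect equation.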

[2] = Compound cytotoxicity, XTT-based colorimetric assay; assay type: cell-based; conditions: human, uninfected MT2 cells, Table 1a, day 4, XTT
Method in brief: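 XTT colorimetric read-out on day 4 gave CC50 values, using MT2 cells left uninfected but otherwise handled as in the antiviral assay.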

O=C(Cn1nc(C(F)F)c2c1C(F)(F)[C@@H]1C[C@H]21)N[C@H](Cc1cc(F)cc(F)c1)c1nc2cc[nH]c2cc1-c1ccc(S(=O)(=O)N2CCOCC2)cc1 [Example 66, 2-((3bS,4aR)-3-(difluoromethyl)-5,5-difluoro-3b,4,4a,5-tetrahydro-1H-cyclopropa[3,4]cyclopenta[1,2-c]pyrazol-1-yl)-N—((R)-2-(3,5-difluorophenyl)-1-(6-(4-(morpholinosulfonyl)phenyl)-1H-pyrrolo[3,2-b]pyridin-5-yl)ethyl)acetamide] gave an EC50 [1] of 1540 nM and a CC50 at 4 days [2] of 10000 nM.

Cn1nc(NS(C)(=O)=O)c2c(Cl)ccc(-n3c(C(Cc4cc(F)cc(F)c4)NC(=O)Cn4nc(C(F)F)c5c4C(F)(F)[C@@H]4C[C@H]54)nc4c(F)cc(F)cc4c3=O)c21 (stereo partly shown) [Example 73] gave an EC50 [1] of 1.53 nM and a CC50 at 4 days [2] greater than 1000 nM.

COc1ccc2c(=O)n(-c3ccc(Cl)c4c(NS(C)(=O)=O)nn(C)c34)c(C(Cc3cc(F)cc(F)c3)NC(=O)Cn3nc(C(F)F)c4c3C(F)(F)[C@@H]3C[C@H]43)nc2c1F (stereo partly shown) [Example 75] showed an EC50 [1] of 109 nM and a CC50 at 4 days [2] greater than 1000 nM.

Work on CC(C)c1ccc(-c2cc3[nH]ccc3nc2[C@H](Cc2cc(F)cc(F)c2)NC(=O)Cn2nc(C(F)F)c3c2C(F)(F)[C@@H]2C[C@H]32)cn1 [Example 81, 2-((3bS,4aR)-3-(difluoromethyl)-5,5-difluoro-3b,4,4a,5-tetrahydro-1H-cyclopropa[3,4]cyclopenta[1,2-c]pyrazol-1-yl)-N—((S)-2-(3,5-difluorophenyl)-1-(6-(6-isopropylpyridin-3-yl)-1H-pyrrolo[3,2-b]pyridin-5-yl)ethyl)acetamide] yielded an EC50 [1] of 13.6 nM and a CC50 at 4 days [2] of 10000 nM.

CC(C)c1ccc(-c2cc3[nH]ccc3nc2[C@@H](Cc2cc(F)cc(F)c2)NC(=O)Cn2nc(C(F)F)c3c2C(F)(F)[C@@H]2C[C@H]32)cn1 [Example 85, 2-((3bS,4aR)-3-(difluoromethyl)-5,5-difluoro-3b,4,4a,5-tetrahydro-1H-cyclopropa[3,4]cyclopenta[1,2-c]pyrazol-1-yl)-N—((R)-2-(3,5-difluorophenyl)-1-(6-(6-isopropylpyridin-3-yl)-1H-pyrrolo[3,2-b]pyridin-5-yl)ethyl)acetamide] gave an EC50 [1] of 299 nM and a CC50 at 4 days [2] greater than 3160 nM.

Cn1nc(NS(C)(=O)=O)c2c(Cl)ccc(-c3cc4[nH]cc(Cl)c4nc3C(Cc3cc(F)cc(F)c3)NC(=O)Cn3nc(C(F)F)c4c3C(F)(F)[C@@H]3C[C@H]43)c21 (stereo partly shown) [Example 88] gave an EC50 [1] of 0.61 nM and a CC50 at 4 days [2] greater than 10000 nM.

Work on CS(=O)(=O)Nc1n[nH]c2c(-c3cc4[nH]ccc4nc3[C@H](Cc3cc(F)cc(F)c3)NC(=O)Cn3nc(C(F)F)c4c3C(F)(F)[C@@H]3C[C@H]43)ccc(Cl)c12 [Example 90, N—((S)-1-(6-(4-chloro-3-(methylsulfonamido)-1H-indazol-7-yl)-1H-pyrrolo[3,2-b]pyridin-5-yl)-2-(3,5-difluorophenyl)ethyl)-2-((3bS,4aR)-3-(difluoromethyl)-5,5-difluoro-3b,4,4a,5-tetrahydro-1H-cyclopropa[3,4]cyclopenta[1,2-c]pyrazol-1-yl)acetamide] yielded an EC50 [1] of 1.48 nM and a CC50 at 4 days [2] greater than 10000 nM.

In the case of CS(=O)(=O)Nc1nn(CC(F)F)c2c(-c3nc4ccccc4nc3[C@H](Cc3cc(F)cc(F)c3)NC(=O)Cn3nc(C(F)F)c4c3C(F)(F)[C@@H]3C[C@H]43)ccc(Cl)c12 [Example 96, N—((S)-1-(3-(4-chloro-1-(2,2-difluoroethyl)-3-(methylsulfonamido)-1H-indazol-7-yl)quinoxalin-2-yl)-2-(3,5-difluorophenyl)ethyl)-2-((3bS,4aR)-3-(difluoromethyl)-5,5-difluoro-3b,4,4a,5-tetrahydro-1H-cyclopropa[3,4]cyclopenta[1,2-c]pyrazol-1-yl)acetamide], the EC50 [1] is reported as 0.26 nM and the CC50 at 4 days [2] is reported as greater than 1000 nM.

Work on COc1c(F)cc2c(=O)n(-c3ccc(Cl)c4c(NS(C)(=O)=O)nn(C)c34)c(C(Cc3cc(F)cc(F)c3)NC(=O)Cn3nc(C(F)F)c4c3C(F)(F)[C@@H]3C[C@H]43)nc2c1F (stereo partly shown) [Example 113] yielded an EC50 [1] of 8.43 nM and a CC50 at 4 days [2] greater than 1000 nM.

For O=C(Cn1nc(C(F)F)c2c1C(F)(F)[C@@H]1C[C@H]21)NC(Cc1cc(F)cc(F)c1)c1nc2ncccc2c(=O)n1-c1ccc(Cl)cc1 (stereo partly drawn) [Example 123, N-(1-(3-(4-chlorophenyl)-4-oxo-3,4-dihydropyrido[2,3-d]pyrimidin-2-yl)-2-(3,5-difluorophenyl)ethyl)-2-((3bS,4aR)-3-(difluoromethyl)-5,5-difluoro-3b,4,4a,5-tetrahydro-1H-cyclopropa[3,4]cyclopenta[1,2-c]pyrazol-1-yl)acetamide], the EC50 [1] was 408 nM and the CC50 at 4 days [2] was greater than 1000 nM.

With O=C(Cn1nc(C(F)F)c2c1C(F)(F)[C@@H]1C[C@H]21)N[C@@H](Cc1cc(F)cc(F)c1)c1nc2ccccc2c(=O)n1-c1ccc(Cl)cc1 [Example 124, N—((S)-1-(3-(4-chlorophenyl)-4-oxo-3,4-dihydroquinazolin-2-yl)-2-(3,5-difluorophenyl)ethyl)-2-((3bS,4aR)-3-(difluoromethyl)-5,5-difluoro-3b,4,4a,5-tetrahydro-1H-cyclopropa[3,4]cyclopenta[1,2-c]pyrazol-1-yl)acetamide] the EC50 [1] was 208 nM and the CC50 at 4 days [2] was greater than 1000 nM.

Cn1nc(NS(C)(=O)=O)c2c(Cl)ccc(-c3nc4ccccc4nc3[C@H](Cc3cc(F)cc(F)c3)NC(=O)Cn3nc(C(F)F)c4c3C(F)(F)[C@@H]3C[C@H]43)c21 [Example 154, N—((S)-1-(3-(4-chloro-1-methyl-3-(methylsulfonamido)-1H-indazol-7-yl)quinoxalin-2-yl)-2-(3,5-difluorophenyl)ethyl)-2-((3bS,4aR)-3-(difluoromethyl)-5,5-difluoro-3b,4,4a,5-tetrahydro-1H-cyclopropa[3,4]cyclopenta[1,2-c]pyrazol-1-yl)acetamide] gave an EC50 [1] of 0.43 nM and a CC50 at 4 days [2] greater than 10000 nM.

Compound Cn1nc(NS(C)(=O)=O)c2c(Cl)ccc(-c3nc4ccccc4nc3[C@@H](Cc3cc(F)cc(F)c3)NC(=O)Cn3nc(C(F)F)c4c3C(F)(F)[C@@H]3C[C@H]43)c21 [Example 155, N—((R)-1-(3-(4-chloro-1-methyl-3-(methylsulfonamido)-1H-indazol-7-yl)quinoxalin-2-yl)-2-(3,5-difluorophenyl)ethyl)-2-((3bS,4aR)-3-(difluoromethyl)-5,5-difluoro-3b,4,4a,5-tetrahydro-1H-cyclopropa[3,4]cyclopenta[1,2-c]pyrazol-1-yl)acetamide] has an EC50 [1] of 35.8 nM and a CC50 at 4 days [2] greater than 10000 nM.

In the case of O=C(Cn1nc(C(F)F)c2c1C(F)(F)[C@@H]1C[C@H]21)N[C@@H](Cc1cc(F)cc(F)c1)c1nc2ccccc2nc1-c1ccc(S(=O)(=O)N2CCOCC2)cc1 [Example 156, 2-((3bS,4aR)-3-(difluoromethyl)-5,5-difluoro-3b,4,4a,5-tetrahydro-1H-cyclopropa[3,4]cyclopenta[1,2-c]pyrazol-1-yl)-N—((S)-2-(3,5-difluorophenyl)-1-(3-(4-(morpholinosulfonyl)phenyl)quinoxalin-2-yl)ethyl)acetamide], the EC50 [1] is reported as 16.4 nM and the CC50 at 4 days [2] is reported as greater than 10000 nM.

Compound O=C(Cn1nc(C(F)F)c2c1C(F)(F)[C@@H]1C[C@H]21)N[C@@H](Cc1cc(F)cc(F)c1)c1nc2ccccc2nc1-c1ccc2c(c1)C(=O)NC2 [Example 157, 2-((3bS,4aR)-3-(difluoromethyl)-5,5-difluoro-3b,4,4a,5-tetrahydro-1H-cyclopropa[3,4]cyclopenta[1,2-c]pyrazol-1-yl)-N—((S)-2-(3,5-difluorophenyl)-1-(3-(3-oxoisoindolin-5-yl)quinoxalin-2-yl)ethyl)acetamide] has an EC50 [1] of 10.4 nM and a CC50 at 4 days [2] greater than 10000 nM.

Work on O=C(Cc1c[nH]c2ccc(O)cc12)N[C@@H](Cc1cc(F)cc(F)c1)c1nc2ccccc2nc1-c1ccc2c(c1)C(=O)NC2 [Example 158, (S)—N-(2-(3,5-difluorophenyl)-1-(3-(3-oxoisoindolin-5-yl)quinoxalin-2-yl)ethyl)-2-(5-hydroxy-1H-indol-3-yl)acetamide] yielded an EC50 [1] of 102 nM and a CC50 at 4 days [2] greater than 10000 nM.

CC(C)c1ccc(-n2c([C@H](Cc3cc(F)cc(F)c3)NC(=O)Cc3c[nH]c4ccc(O)cc34)nc3cc(C#N)ccc3c2=O)cn1 [Example 162, (S)—N-(1-(7-cyano-3-(6-isopropylpyridin-3-yl)-4-oxo-3,4-dihydroquinazolin-2-yl)-2-(3,5-difluorophenyl)ethyl)-2-(5-hydroxy-1H-indol-3-yl)acetamide] showed an EC50 [1] of 6.56 nM and a CC50 at 4 days [2] greater than 10000 nM.

In the case of CC(C)c1ccc(-n2c([C@H](Cc3cc(F)cc(F)c3)NC(=O)Cn3nc(C(F)F)c4c3C(F)(F)[C@@H]3C[C@H]43)nc3cc(C#N)ccc3c2=O)cn1 [Example 163, N—((S)-1-(7-cyano-3-(6-isopropylpyridin-3-yl)-4-oxo-3,4-dihydroquinazolin-2-yl)-2-(3,5-difluorophenyl)ethyl)-2-((3bS,4aR)-3-(difluoromethyl)-5,5-difluoro-3b,4,4a,5-tetrahydro-1H-cyclopropa[3,4]cyclopenta[1,2-c]pyrazol-1-yl)acetamide], the EC50 [1] is reported as 11.9 nM and the CC50 at 4 days [2] is reported as 3980 nM.

O=C(Cc1c[nH]c2ccc(O)cc12)N[C@@H](Cc1cc(F)cc(F)c1)c1nc2ccccc2c(=O)n1-c1ccc(S(=O)(=O)N2CCOCC2)cc1 [Example 164, (S)—N-(2-(3,5-difluorophenyl)-1-(3-(4-(morpholinosulfonyl)phenyl)-4-oxo-3,4-dihydroquinazolin-2-yl)ethyl)-2-(5-hydroxy-1H-indol-3-yl)acetamideacetamide] showed an EC50 [1] of 1.17 nM and a CC50 at 4 days [2] greater than 10000 nM.

Work on O=C(Cn1nc(C(F)F)c2c1C(F)(F)[C@@H]1C[C@H]21)N[C@@H](Cc1cc(F)cc(F)c1)c1nc2ccccc2c(=O)n1-c1ccc(S(=O)(=O)N2CCOCC2)cc1 [Example 165, 2-((3bS,4aR)-3-(difluoromethyl)-5,5-difluoro-3b,4,4a,5-tetrahydro-1H-cyclopropa[3,4]cyclopenta[1,2-c]pyrazol-1-yl)-N—((S)-2-(3,5-difluorophenyl)-1-(3-(4-(morpholinosulfonyl)phenyl)-4-oxo-3,4-dihydroquinazolin-2-yl)ethyl)acetamide] yielded an EC50 [1] of 0.23 nM and a CC50 at 4 days [2] greater than 10000 nM.
